This is an account of results in patent publication US20140170125A1, “USE OF CARDIOTROPHIN-1 FOR THE TREATMENT OF KIDNEY DISEASES” (DIGNA Biotech, S.L., priority 2011, published 2014).

Series [1] concerns experimental model of iodinated contrast nephropathy. Kind of series: Contrast-induced nephropathy: Gastrografin in rats sensitized with subtoxic gentamicin. Here is the method: The rats were placed in individual metabolic cages where they had free access to food and drink. After two days of acclimatization, the 24-hour urine was collected in graduated cylinders. The urine collected was centrifuged during 8 minutes at 2,500 rpm, to clean it from residues not thereof, the clean urine was collected and it was stored at −80° C. for its later analysis.
The blood samples were obtained in capillaries with heparin by a small cut at the end of the tail. Five capillaries were extracted per rat (200 μL), and the capillaries were centrifuged in a microcentrifuge at 11,000 rpm during three minutes. Once centrifuged, the capillaries were broken with the aid of a file, by the cells-plasma limit. The plasma was extracted and stored in eppendorf tubes at −80° C. for its later analysis.
To measure kidney function, the plasma concentrations of creatinine and creatinine clearance, which is a measurement of the glomerular filtration rate, were determined. The creatinine clearance (CrCl) was calculated from the formula CrCl=UF×CrU/CrP, where UF is the urinary flow (ml/min), CrU the creatinine concentration in urine (mg/ml) and CrP the creatinine concentration in plasma (mg/ml). The creatinine concentration in urine and in plasma were measured by a semiautomatic analyser (Reflotron, Roche).
The concentration of urea in plasma was measured by specific reactive strips of a commercial kit, using a semiautomatic analyser (Reflotron, Roche).
The concentration of proteins in urine (proteinuria) was measured by Bradford's colorimetric method (Anal Biochem. 1976; 72:248-54). The urinary excretion of proteins (UEprot) in 24 hours was calculated by the formula: UEprot=Cprot×FU24 h, where Cprot is the concentration of proteins in urine (mg/mL) and FU24 h the urinary flow of 24 hours (mL/day).
For its determination a commercial kit from Roche was used, following the manufacturer's specifications, and the results were analysed with the KC-Junior software.
In the Western Blot technique, 100 μg of protein of the total of the renal tissue homogenate or a volume of urine of each animal which corresponds to the excretion fraction were loaded in a polyacrylamide gel. After separation by electrophoresis, these proteins were transferred to a PVDF membrane (Inmobilon-P #IPVH00010, Madrid, Spain), and they were hybridized with antibodies against KIM-1 (R&D Systems) and NGAL (MBL).
An experimental model of iodinated contrast nephropathy was used, consisting of the intravenous administration of the iodinated contrast Gastrografin (Bayer C. N. 909622 EXO) to rats predisposed to suffering acute kidney failure.
The experiment was performed on 32 male Wistar rats of around 220 grams in weight. The environmental conditions of the animals were kept constant: temperature of around 20° C., humidity of approximately 60% and daily light period (photoperiod) of 12 hours.
Six experimental groups were considered in the design study:
Control group (C): rats administered saline solution (n=5).
Cardiotrophin group (CT-1): rats administered cardiotrophin i.v. (100 μg/Kg/day) the day before the administration of the contrast and in the four subsequent days (n=5).
Gastrografin group (Gg): rats administered a single dose of iodinated agent i.v. (10 mL/Kg; […]) (n=5).
The animals were housed in metabolic cages in order to collect the urine free of faeces. Likewise, a blood sample was obtained every day (0.150 ml) from the tail in heparized capillaries.
At the end of the experiments (four days after administration of the iodinated contrast) the rats were anaesthetized and, later, they were perfused with heparinized saline solution. The kidneys were obtained from these animals and part of the samples was introduced in formol to perform histological studies whilst another part was ultrafrozen for the tissue studies.
The studies performed were the following:
Plasma creatinine, Plasma urea, proteinuria, microalbuminuria
Creatinine clearance in metabolic cages

Series [2] has as its system acute kidney injury produced by gentamicin. Kind of series: Acute kidney injury produced by gentamicin.

As to gentamicin [reference compound], the proteinuria result in series [1] (agents without CT-1 protection or alone, vs control) was “did not alter”; in series [2] (agent alone) it was “high proteinuria”. Besides, in series [1] (in comparison with the controls), the “KIM-1 in the urine (Western blot)” value is recorded as “produced no effect”. Moreover, the “general condition (appearance, mobility)” value in series [1] (throughout the experiment) is “healthy appearance and normal mobility”; in series [2] (agent alone) it was “more deteriorated appearance, reduced mobility and slight colouring of the hair”. Also, the survival entry in series [1] (until the end of the experiment (four days after contrast)) was “all animals survived until the end of the experiment”; in series [2] (until the end of the experiment) it was “one animal from each group died”. The “PAI-1 in the urine (Western blot)” value in series [1] (vs control group) was “not different from the control group animals”. For the same substance, the urinary flow result in series [2] (administered separately, vs control group (C)) is “Neither G nor CT-1, administered separately, modified the urinary flow”. Moreover, the “reactive bands to the anti KIM-1 antibody in the urine” value in series [2] (agent alone, vs controls) is listed as “clear increase”. In addition, the “renal levels of KIM-1 (Western blot)” value in series [2] (agent alone, vs controls) is reported as “clear increase”. Further, in series [2] (at the time of sacrifice), the “liver weight (with respect to the body weight)” value is on record as “tendency for relative weight reduction”. For the same substance, the “renal and urinary NGAL (Western blot)” value in series [2] (end of treatments) is recorded as “induce an increase”. Also, the “renal cortex histology (hematoxylin-eosin)” value in series [2] (gentamicin alone, end of treatments) is reported as “massive tubular necrosis”. Moreover, the body weight result in series [2] (vs control and CT-1 groups) is “slight decrease”.
